Experimental data reported in patent US6552014B2, “Methods of inhibiting platelet activation with selective serotonin reuptake inhibitors” (HeartDrug Research, L.L.C., priority 1999, dated 2003).

How the values were obtained:
Assay type in all cases: cell-based, human
[1] = system: GP IIb/IIIa; assay: Flow cytometry of platelet antigen expression, platelet rich plasma; conditions: for GP IIb/IIIa (mean) log fluorescence intensity / GP IIb/IIIa (peak) log fluorescence intensity: PRP
Text: (§1) For ex vivo assessment of the SSRIs effect on a PAM, a level of a PAM can be assessed by flow cytometry by first obtaining a sample that comprises platelets and then contacting the sample with a platelet activation agonist, such as phorbol myristate acetate (PMA), ADP (adenosine diphosphate), thrombin, collagen, and/or TRAP (thrombin receptor activating peptide), under conditions suitable for activation of platelets in the sample. The sample is in contact with the agonist preferably for a period of time effective to maximally activate the platelets. […] NDMS at 31.1, 64.1 or 143 ng./ml). Then one contacts or stains the samples with a composition that comprises an anti-PAM antibody e.g., having a fluorescent label, preferably in an amount in excess of that required to bind the PAM expressed on the platelets, under conditions suitable for the formation of labeled complexes between the anti-PAM antibody and activated platelets. Then the formation of the complex in the sample is determined (detected or measured). […] The blood-ACD mixture was centrifuged at 1000 r.p.m. for 10 minutes at room temperature. […] The PRP was then centrifuged at 3000 r.p.m. for 10 minutes. […] All cells were then divided into ten plastic capped tubes. Nine portions of washed platelets were incubated with 5 μfluorescein isothiocyanate (FITC)-conjugated antibodies in the dark at +4 °C for 30 minutes, and one part remained unstained and served as a negative control. Surface antigen expression was measured with monoclonal murine anti-human antibodies: CD9 (p24); CD41a (IIb/IIIa, aIIIbb3); CD42b (Ib); CD61(IIIa) (DAKO Corporation, Carpinteria Calif.); CD49b (VLA-2, or a2b1); CD62p (P-selectin); CD31 (PECAM-1); […] The instrument was calibrated daily with fluorescence beads (CaliBRITE; Becton Dickinson) and measured FITC-conjugated fluorescence intensity. All parameters were obtained using four decade logarithmic amplification. The data was collected and stored in list mode, and then analyzed using CELLQuest® (version 1.2.2) software. Procedures are described in detail in (Gurbel, P. […] Serebruany, V. […] Gurbel, P. A. et al., Coron Artery Dis 9: 451-456 (1998) and Serebruany, V. L. et al., Arterioscl Thromb Vasc Biol 19: 153-158 (1999)). The data in table 1 was obtained using the methods described herein, and in particular, in Examples 1 and 2. The levels of various PAMs were assess from samples of human volunteers.

[2] = system: CD9; assay: as above; conditions: for CD9 (mean) log fluorescence intensity / CD9 (peak) log fluorescence intensity: PRP
Text: as §1

[3] = system: platelets; assay: PFA-100 closure time, collagen/ADP cartridge; conditions: whole blood from a healthy volunteer, increasing concentrations
Text: A Platelet-Function Analyzer referred to as PFA-100® (Dade Behring, Deerfield Ill.) was used. The PFA-100® is a high shear-inducing analyzer that simulates primary hemostasis after injury to a small vessel under flow conditions. The PFA-100® system measures the time required for a patient's blood sample to form a“platelet plug” in the first phase of blood clot formation. That time interval, which normally ranges from one to three minutes, is called “closure time.” The device provides a constant negative pressure that aspirates whole blood which comes into contact with the collagen coated membrane and then passes through the aperture. The time required to obtain occlusion of the aperture is digitally recorded.
The PFA-100® system permits detection of platelet dysfunction during primary hemostasis, the first phase of hemostasis or coagulation. The system consists of a microprocessor-controlled instrument and disposable test cartridges that measure how well a patient's platelets adhere and aggregate to form a platelet plug.
An in vitro system for the detection of platelet dysfunction, PFA-100™, has been developed. It provides a quantitative measure of platelet function in anticoagulated whole blood. The system comprises a microprocessor-controlled instrument and a disposable test cartridge containing a biologically active membrane. […]

[4] = healthy volunteers, desmethylsertraline 31.1 ng/ml
[5] = healthy volunteers, desmethylsertraline 64.2 ng/ml
[6] = healthy volunteers, desmethylsertraline 143 ng/ml
[7] = post-angioplasty patient on aspirin, desmethylsertraline 31.1 ng/ml
[8] = post-angioplasty patient on aspirin, desmethylsertraline 64.2 ng/ml
[9] = post-angioplasty patient on aspirin, desmethylsertraline 143 ng/ml
[10] = healthy volunteers, sertraline 18.1 ng/ml
[11] = healthy volunteers, sertraline 44.7 ng/ml
[12] = healthy volunteers, sertraline 85.3 ng/ml
[13] = post-angioplasty patient on aspirin, sertraline 18.1 ng/ml
[14] = post-angioplasty patient on aspirin, sertraline 44.7 ng/ml
[15] = post-angioplasty patient on aspirin, sertraline 85.3 ng/ml
[16] = plasma concentration 85.3 ng/ml, equivalent to 200 mg/daily

Compound: N[C@H]1CC[C@@H](c2ccc(Cl)c(Cl)c2)c2ccccc21 [Desmethyl sertraline, N-desmethylsertraline]
- GP IIb/IIIa (mean) log fluorescence intensity [1, 4]: 580
- GP IIb/IIIa (peak) log fluorescence intensity [1, 4]: 457
- GP IIb/IIIa (mean) log fluorescence intensity [1, 5]: 743
- GP IIb/IIIa (peak) log fluorescence intensity [1, 5]: 649
- GP IIb/IIIa (mean) log fluorescence intensity [1, 6]: 708
- GP IIb/IIIa (peak) log fluorescence intensity [1, 6]: 509
- GP IIb/IIIa (mean) log fluorescence intensity [1, 7]: 948
- GP IIb/IIIa (peak) log fluorescence intensity [1, 7]: 791
- GP IIb/IIIa (mean) log fluorescence intensity [1, 8]: 918
- GP IIb/IIIa (peak) log fluorescence intensity [1, 8]: 777
- GP IIb/IIIa (mean) log fluorescence intensity [1, 9]: 836
- GP IIb/IIIa (peak) log fluorescence intensity [1, 9]: 716
- CD9 (mean) log fluorescence intensity [2, 4]: 728
- CD9 (peak) log fluorescence intensity [2, 4]: 620
- CD9 (peak) log fluorescence intensity [2, 5]: 805
- CD9 (mean) log fluorescence intensity [2, 6]: 837
- CD9 (peak) log fluorescence intensity [2, 6]: 770
- CD9 (mean) log fluorescence intensity [2, 7]: 908
- CD9 (peak) log fluorescence intensity [2, 7]: 1046
- CD9 (mean) log fluorescence intensity [2, 8]: 927
- CD9 (peak) log fluorescence intensity [2, 8]: 930
- CD9 (mean) log fluorescence intensity [2, 9]: 853
- CD9 (peak) log fluorescence intensity [2, 9]: 850
- closure time (time for a platelet plug to form) (FIG. 11), in words [3]: decrease in the time

Compound: CN[C@H]1CC[C@@H](c2ccc(Cl)c(Cl)c2)c2ccccc21 [sertraline]
- GP IIb/IIIa expression, flow cytometric graph (FIG. 9), in words ([1]; 44.7, 85.3 ng/mL of sertraline): dose dependent decrease in the expression
- GP IIb/IIIa (mean) log fluorescence intensity [1, 10]: 1038
- GP IIb/IIIa (peak) log fluorescence intensity [1, 10]: 991
- GP IIb/IIIa (mean) log fluorescence intensity [1, 11]: 748
- GP IIb/IIIa (peak) log fluorescence intensity [1, 11]: 518
- GP IIb/IIIa (mean) log fluorescence intensity [1, 12]: 533
- GP IIb/IIIa (peak) log fluorescence intensity [1, 12]: 421
- GP IIb/IIIa (mean) log fluorescence intensity [1, 13]: 911
- GP IIb/IIIa (peak) log fluorescence intensity [1, 13]: 679
- GP IIb/IIIa (mean) log fluorescence intensity [1, 14]: 962
- GP IIb/IIIa (peak) log fluorescence intensity [1, 14]: 798
- GP IIb/IIIa (mean) log fluorescence intensity [1, 15]: 1035
- GP IIb/IIIa (peak) log fluorescence intensity [1, 15]: 922
- surface expression of glycoprotein IIb/IIIa complex (GP IIb/IIIa), in words [1, 16]: diminished surface expression
- CD9 (mean) log fluorescence intensity [2, 10]: 948
- CD9 (peak) log fluorescence intensity [2, 10]: 938
- CD9 (mean) log fluorescence intensity [2, 11]: 905
- CD9 (peak) log fluorescence intensity [2, 11]: 777
- CD9 (mean) log fluorescence intensity [2, 12]: 742
- CD9 (peak) log fluorescence intensity [2, 12]: 716
- CD9 (mean) log fluorescence intensity [2, 13]: 949
- CD9 (peak) log fluorescence intensity [2, 13]: 1027
- CD9 (mean) log fluorescence intensity [2, 14]: 1015
- CD9 (peak) log fluorescence intensity [2, 14]: 850
- CD9 (mean) log fluorescence intensity [2, 15]: 984
- CD9 (peak) log fluorescence intensity [2, 15]: 964
- surface expression of CD9 (p24), in words [2, 16]: diminished surface expression
- closure time (time for a platelet plug to form) (FIG. 11), in words [3]: decrease in the time
